Results reported in US9089543B2, “Anti-inflammatory composition containing macrolactin A and a derivative thereof as active ingredients” (DAEWOO PHARMACEUTICAL IND. CO., LTD., priority 2009, dated 2015).
“Also recorded” adds a separate entry of the source.

Assays:
[1] = system: NO formation in RAW264.7 cells; assay: Inhibition effect on NO formation (Griess reaction) in LPS-stimulated RAW264.7 cells; format: cell-based, murine; conditions: RAW264.7, LPS 0.1 μg/ml, 16 hours; MA 1-100 μM, MMA, SMA, hydrocortisone 10 μM; vs control treated with LPS only
Procedure: (§1) RAW264.7, a murine macrophage cell line, was obtained from Korean Cell Line Bank (KCLB). It was cultured in Dulvecco's modified Eagle's medium (DMEM, LONZA) containing 10% fetal bovine serum (FBS, LONZA) and 1% penicillin/streptomycin (Sigma) in an incubator at 37° C. under 5% CO2 and then sub-cultured when the cell density reached 80%. After RAW264.7 cells were cultured for 24 hours, MA (1-100 μM), MMA (10 μM), SMA (10 μM) and hydrocortisone (10 μM), which is a well-known substance having anti-inflammatory activity, were added. One hour after the addition, LPS (0.1 or 1.0 μg/ml, Sigma) was added to the mixture, which was then cultured for 8 or 16 hours. Dimethyl sulfoxide (hereinafter, “DMSO”) was used as a negative control, while LPS (0.1 or 1.0 μg/ml, Sigma) was used as a positive control without adding the macrolactin compounds.
NO concentration in cell culture was determined by using a Nitrate/Nitrite colorimetric assay Kit (Cayman). Murine macrophage RAW264.7 cells adjusted to 1×10^5 cells/well were cultured in a 6-well plate for 24 hours under the conditions mentioned in Example 2, and then further cultured for 16 hours after being treated with the present macrolactin compounds and LPS (0.1 μg/ml, Sigma). The cultured media were treated with Griess reagent R1 (sulfanilamide) and then Griess reagent R2 (N-(1-Naphthyl)-ethylenediamine) in a 96-well plate provided by the manufacturer, and then detected the formation of purple azo group from nitrite. The amount of produced NO was calculated using the calibration curve which had been made through the standard solution provided by the manufacturer at an absorbance of 540 nm in a UV spectrometer.

[2] = system: PGE2 formation in RAW264.7 cells; assay: Inhibition effect on PGE2 formation (EIA kit) in LPS-stimulated RAW264.7 cells; format: cell-based, murine; conditions: RAW264.7, LPS 0.1 μg/ml, 16 hours; vs control treated with LPS only
Procedure: as §1
The amount of formed PGE2, an intracellular […] factor, was determined by using an Amersham prostaglandin E2 biotrak Enzymeimmunoassay (EIA) system Kit (GE Healthcare). Murine macrophage RAW264.7 cells adjusted to 2×10^4 cells/well were cultured in a 96-well plate for 24 hours under the conditions mentioned in Example 2 and then further cultured for 16 hours after being treated with the present macrolactin compounds and LPS (0.1 μg/ml, Sigma). The amount of produced PGE2 was calculated using the calibration curve which had been made through the standard solution provided by the manufacturer at an absorbance of 450 nm in a UV spectrometer. The r^2 value of the calibration curve against the standard substance was above 0.99.

iNOS mRNA = assay: Expression of iNOS mRNA by real-time PCR in LPS-stimulated RAW264.7 cells; format: cell-based, murine; conditions: RAW264.7, LPS 0.1 μg/ml, 16 hours; for inhibition of expression of iNOS mRNA: real-time PCR; for inhibition of iNOS mRNA expression compared to hydrocortisone: relative to hydrocortisone (10 μM)
Procedure: as §1
The effect of the present macrolactin compounds on the expression of intracellular inflammatory factors, iNOS and COX-2 mRNA was investigated. Murine macrophage RAW264.7 cells adjusted to 1×10^5 cells/well were cultured in a 6-well plate for 24 hours under the conditions mentioned in Example 2 and then further cultured for 16 hours after being treated with the present macrolactin compounds and LPS (0.1 μg/ml, Sigma). Total RNA of the cultured cells was isolated by Trizol reagent (Sigma) under RNase-free conditions. A cDNA synthesis kit (TAKARA) was used to obtain a template for PCR using the separated total RNA. To the mixture of 1 μl of Oligo dT Primer (50 μM), 1 μl of dNTP Mixture (10 mM each) and 2 μg of the template RNA, RNase-free dH2O was added to adjust the total volume to 10 μl. The mixture was maintained at 65° C. for 5 minutes and then in ice for 2 minutes. To the mixture of 10 μl of the mixture, 4 μl of 5× PrimeScript™ buffer, 0.5 μl of RNase inhibitor (40 U/μl), and 0.5 μl of PrimeScript™ RTase (200 U/μl), RNase-free dH2O was added to adjust the total volume to 20 μl. The mixture was reacted at 42° C. for 30 minutes to synthesize cDNA.
The extent of iNOS and COX-2 mRNA expression of the mixture was determined by using a real-time gene amplifier (Corbett Life Science Rotor-gene 6000). The operating condition of the real-time gene amplifier was as follows: initial denaturation started at 95° C. for 5 minutes and was then repeated 50 times at 94° C. for 30 seconds, at 57° C. for 30 seconds and 72° C. for 30 seconds. When the mRNA expressions of the samples were compared with each other, that of the housekeeping gene was determined at the same time and then the relative quantity was calculated. By compensating the amount of RNA for the measured value of the housekeeping gene, the amount of mRNA produced in each sample was calculated to Ct (Threshold cycle) value.

COX-2 mRNA = assay: Expression of COX-2 mRNA by real-time PCR in LPS-stimulated RAW264.7 cells; format: cell-based, murine; conditions: RAW264.7, LPS 0.1 μg/ml, 16 hours
Procedure: as §1
The effect of the present macrolactin compounds on the expression of intracellular inflammatory factors, iNOS and COX-2 mRNA was investigated. Murine macrophage RAW264.7 cells adjusted to 1×10^5 cells/well were cultured in a 6-well plate for 24 hours under the conditions mentioned in Example 2 and then further cultured for 16 hours after being treated with the present macrolactin compounds and LPS (0.1 μg/ml, Sigma). Total RNA of the cultured cells was isolated by Trizol reagent (Sigma) under RNase-free conditions. A cDNA synthesis kit (TAKARA) was used to obtain a template for PCR using the separated total RNA. […]
The extent of iNOS and COX-2 mRNA expression of the mixture was determined by using a real-time gene amplifier (Corbett Life Science Rotor-gene 6000). […] When the mRNA expressions of the samples were compared with each other, that of the housekeeping gene was determined at the same time and then the relative quantity was calculated. By compensating the amount of RNA for the measured value of the housekeeping gene, the amount of mRNA produced in each sample was calculated to Ct (Threshold cycle) value.

iNOS protein = assay: Formation of iNOS protein by western blot in LPS-stimulated RAW264.7 cells; format: cell-based, murine; conditions: RAW264.7, LPS 0.1 μg/ml, 16 hours
Procedure: as §1
(§2) The effect of the present macrolactin compounds on the formation of intracellular inflammatory factor, iNOS and COX-2 protein was investigated. Murine macrophage RAW264.7 cells adjusted to 1×10^6 cells/dish were cultured in a 100 mm dish for 24 hours under the conditions mentioned in Example 2 and then further cultured for 16 hours after being treated with the present macrolactin compounds and LPS (0.1 μg/ml, Sigma). The cells were washed 2-3 times with cold PBS and then collected. 100 μl of 50 mM Tris-HCl buffer, pH7.5 (0.1 M KCl, 1 mM EDTA, 1 mM DTT, 0.2 mM PMSF) were added to the collected cells, which were lysed by using liquid nitrogen. The lysate was centrifuged at 4° C. for 10 minutes at 13,000 rpm to collect the supernatant. Protein was quantitatively analyzed by the Bradford method. 50 μg of the protein was subjected to sodium dodecyl sulfate-polyacrylamide gel electrophoresis (SDS-PAGE). The SDS-PAGE gel was transferred to nitrocellulose membrane (Amersham) at 50 V for 2 hours. The nitrocellulose membrane was washed twice with 1× Tris buffered saline (TBS; 0.1 M NaCl, 10 mM Tris-HCl), to which was added 3% gelatin solution for blocking non-specific protein reaction and then reacted at room temperature for 1 hour. […]

COX-2 protein = assay: Formation of COX-2 protein by western blot in LPS-stimulated RAW264.7 cells; format: cell-based, murine; conditions: RAW264.7, LPS 0.1 μg/ml, 16 hours
Procedure: as §1, §2

[3] = system: murine macrophage RAW264.7; assay: Cytotoxicity by MTT analysis; format: cell-based; conditions: RAW264.7, MTT, 16 hours
Procedure: as §1
MTT analysis was used to investigate the cytotoxic effects on murine macrophage RAW264.7 of the present macrolactin compounds. The cells adjusted to 4×10^4 cells/well were cultured in a 96-well plate for 24 hours under the conditions mentioned in Example 2 and then further cultured for 16 hours after being treated with the present macrolactin compounds. After the medium was removed, 100 μl of MTT solution (2 mg/ml PBS) was added, and then the mixture was cultured in an incubator at 37° C. under 5% CO2 for 4 hours. After the MTT solution was removed, 100 μl of DMSO was added, and then the mixture was shake-cultured for 30 minutes in the dark. After the culture, the amount of free formazan was determined at 540 nm by using an ELISA reader.

[4] = system: TNF-α formation in RAW264.7 cells; assay: Inhibition of TNF-α formation (mouse ELISA kit) in LPS-stimulated RAW264.7 cells; format: cell-based, murine; conditions: RAW264.7, LPS; for inhibition of TNF-α formation: vs control treated with LPS only
Procedure: (§3) The present inventors have confirmed the anti-inflammatory effects of the above macrolactin compounds to accomplish the present invention. In order to investigate the anti-inflammatory effects, a murine macrophage RAW264.7 cell line treated with each of the purified compounds was stimulated by LPS (0.1 μg/mL or 1.0 μg/mL, Sigma), and then the formation of inflammation-inducing substances 1) NO and 2) PEG2 and the expression of enzymes related to their formation were analyzed. The formation of 3) pro-inflammatory cytokines, TNF-α, IL-1β, IL-6 and GM-CSF were also analyzed by the same procedures.
(§4) 3) Suppression of pro-inflammatory cytokines by the present macrolactin compounds was determined by using a mouse ELISA kit (KOMA Biotech).
as §1

[5] = system: IL-1β formation in RAW264.7 cells; assay: Inhibition of IL-1β formation (mouse ELISA kit) in LPS-stimulated RAW264.7 cells; format: cell-based, murine; conditions: RAW264.7, LPS
Procedure: as §3, §4
(§5) RAW264.7, a murine macrophage cell line, was obtained from Korean Cell Line Bank (KCLB). It was cultured in Dulvecco's modified Eagle's medium (DMEM, LONZA) containing 10% fetal bovine serum (FBS, LONZA) and 1% penicillin/streptomycin (Sigma) in an incubator at 37° C. under 5% CO2 and then sub-cultured when the cell density reached 80%. After RAW264.7 cells were cultured for 24 hours, MA (1-100 μM), MMA (10 μM), SMA (10 μM) and hydrocortisone (10 μM), which is a well-known substance having anti-inflammatory activity, were added. One hour after the addition, LPS (0.1 or 1.0 μg/ml, Sigma) was added to the mixture, which was then cultured for 8 or 16 hours. […]

[6] = system: IL-6 formation in RAW264.7 cells; assay: Inhibition of IL-6 formation (mouse ELISA kit) in LPS-stimulated RAW264.7 cells; format: cell-based, murine; conditions: RAW264.7, LPS
Procedure: as §3, §4, §1

[7] = system: GM-CSF formation in RAW264.7 cells; assay: Inhibition of GM-CSF formation (mouse ELISA kit) in LPS-stimulated RAW264.7 cells; format: cell-based, murine; conditions: RAW264.7, LPS
Procedure: as §3, §4, §5

[8] = system: vancomycin-resistant Enterococci (VRE), methicillin-resistant Staphylococcus aureus (MRSA) and Burkholderia cepacia; conditions: against VRE, compounds from Bacillus subtilis DSM 16696; cited from earlier work

| SMILES | inhibition of NO formation [1] | inhibition of PGE2 formation [2] | inhibition of expression of iNOS mRNA (iNOS mRNA) | inhibition of iNOS mRNA expression compared to hydrocortisone (iNOS mRNA) | inhibition of expression of COX-2 mRNA (COX-2 mRNA) | inhibition of formation of iNOS protein (iNOS protein) | inhibition of formation of COX-2 protein (COX-2 protein) | cytotoxicity compared to hydrocortisone [3] | inhibition effect on TNF-α formation compared to hydrocortisone / control substances ([4]; relative to hydrocortisone) | inhibition of TNF-α formation [4] | inhibition of IL-1β formation [5] | inhibition of IL-6 formation [6] | inhibition of GM-CSF formation [7] | anti-bacterial activity [8] |
| --- | --- | --- | --- | --- | --- | --- | --- | --- | --- | --- | --- | --- | --- | --- |
| CC1CCC/C=C/C=C/[C@H](O)C[C@@H](O)C/C=C\C=C\[C@@H](O)C/C=C/C=C\C(=O)O1 (stereo partly drawn) [MA, macrolactin A] | strongly inhibited | strongly inhibited | strongly suppressed; also recorded: strongly inhibited | comparable to or superior to that of hydrocortisone | strongly inhibited | strongly inhibited | strongly inhibited | lower cytotoxicities | especially superior inhibition effect | inhibited | strongly inhibited | strongly inhibited | strongly inhibited | anti-bacterial effect against MRSA only |
| C[C@@H]1CCC/C=C/C=C/[C@H](O)C[C@@H](O)C/C=C\C=C\[C@@H](OC(=O)CC(=O)O)C/C=C/C=C\C(=O)O1 [MMA, 7-O-malonyl macrolactin A] | strongly inhibited; also recorded: low inhibition activities | strongly inhibited | strongly suppressed; also recorded: strongly inhibited | comparable to or superior to that of hydrocortisone | strongly inhibited | strongly inhibited | strongly inhibited | lower cytotoxicities |  | inhibited |  | strongly inhibited |  | superior anti-bacterial activity |
| C[C@@H]1CCC/C=C/C=C/[C@H](O)C[C@@H](O)C/C=C\C=C\[C@@H](OC(=O)CCC(=O)O)C/C=C/C=C\C(=O)O1 [SMA, 7-O-succinyl macrolactin A] | strongly inhibited; also recorded: low inhibition activities | strongly inhibited | strongly suppressed; also recorded: strongly inhibited | comparable to or superior to that of hydrocortisone | strongly inhibited | strongly inhibited | strongly inhibited | lower cytotoxicities |  | inhibited | strongly inhibited | strongly inhibited | strongly inhibited | superior anti-bacterial activity |
| C[C@]12CCC(=O)C=C1CC[C@@H]1[C@@H]2[C@@H](O)C[C@@]2(C)[C@H]1CC[C@]2(O)C(=O)CO [hydrocortisone, reference compound] | strongly inhibited |  |  |  |  |  |  |  |  |  |  |  |  |  |
